Data: PubChem BioAssay (NCI)
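48-hour exposure; five concentrations; linearly interpolated endpoints. TGI is the concentration that stops growth completely.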

Experiments:
Assay in all cases: NCI-60 cell line screen, 48 h
[1] = test system: NCI-H23 lung
[2] = test system: SN12C renal
[3] = test system: UACC-62 melanoma
[4] = test system: ACHN renal
[5] = test system: SF-268 CNS
[6] = test system: HCT-116 colon
[7] = test system: NCI/ADR-RES ovarian
[8] = test system: A549 NSCLC
[9] = test system: KM12 colon
[10] = test system: UO-31 renal
[11] = test system: HCT-15 colon
[12] = test system: HCC-2998 colon
[13] = test system: HL-60(TB) leukemia
[14] = test system: K-562 leukemia
[15] = test system: LOX IMVI melanoma
[16] = test system: U251 CNS
[17] = test system: HOP-62 NSCLC
[18] = test system: RXF 393 renal
[19] = test system: PC-3 prostate
[20] = test system: DU-145 prostate
[21] = test system: SK-MEL-5 melanoma
[22] = test system: EKVX NSCLC
[23] = test system: NCI-H226 lung
[24] = test system: T-47D breast
[25] = test system: NCI-H522 lung
[26] = test system: OVCAR-8 ovarian
[27] = test system: OVCAR-3 ovarian
[28] = test system: HS 578T breast
[29] = test system: SNB-19 CNS
[30] = test system: SF-295 CNS
[31] = test system: CCRF-CEM leukemia
[32] = test system: UACC-257 melanoma
[33] = test system: M14 melanoma
[34] = test system: MOLT-4 leukemia
[35] = test system: SF-539 CNS
[36] = test system: SNB-75 CNS
[37] = test system: SK-MEL-28 melanoma
[38] = test system: MCF7 breast
[39] = test system: TK-10 renal
[40] = test system: HOP-92 NSCLC
[41] = test system: SK-OV-3 ovarian
[42] = test system: CAKI-1 renal
[43] = test system: RPMI-8226 leukemia
[44] = test system: COLO 205 colon
[45] = test system: SW-620 colon
[46] = test system: OVCAR-4 ovarian
[47] = test system: 786-0 renal
[48] = test system: HT29 colon
[49] = test system: MDA-MB-231 breast
[50] = test system: MALME-3M melanoma
[51] = test system: IGROV1 ovarian
[52] = test system: SK-MEL-2 melanoma
[53] = test system: MDA-MB-435
[54] = test system: OVCAR-5 ovarian
[55] = test system: NCI-H460 lung

Oc1c(C(O)c2ccccn2)ccc2ccccc12 (stereo not given)
TGI [1]: > 100 µM | TGI [2]: > 100 µM | TGI [3]: 46.1 µM | TGI [4]: > 100 µM | TGI [5]: > 100 µM | TGI [6]: > 100 µM | TGI [7]: > 100 µM | TGI [8]: > 100 µM | TGI [9]: > 100 µM | TGI [10]: > 100 µM | TGI [11]: 97 µM | TGI [12]: 59.4 µM | TGI [13]: 42.1 µM | TGI [14]: > 100 µM | TGI [15]: > 100 µM | TGI [16]: > 100 µM | TGI [17]: > 100 µM | TGI [18]: > 100 µM | TGI [19]: > 100 µM | TGI [20]: > 100 µM | TGI [21]: > 100 µM | TGI [22]: > 100 µM | TGI [23]: > 100 µM | TGI [24]: > 100 µM | TGI [25]: 74.1 µM | TGI [26]: > 100 µM | TGI [27]: > 100 µM | TGI [28]: > 100 µM | TGI [29]: > 100 µM | TGI [30]: > 100 µM | TGI [31]: > 100 µM | TGI [32]: > 100 µM | TGI [33]: > 100 µM | TGI [34]: > 100 µM | TGI [35]: > 100 µM | TGI [36]: > 100 µM

S=c1[nH]n2c(Cc3ccccc3)nnc2s1
TGI [37]: > 100 µM | TGI [1]: > 100 µM | TGI [2]: > 100 µM | TGI [3]: > 100 µM | TGI [38]: > 100 µM | TGI [4]: > 100 µM | TGI [39]: > 100 µM | TGI [5]: > 100 µM | TGI [6]: > 100 µM | TGI [7]: > 100 µM | TGI [8]: > 100 µM | TGI [40]: > 100 µM | TGI [9]: > 100 µM | TGI [10]: > 100 µM | TGI [11]: > 100 µM | TGI [41]: > 100 µM | TGI [42]: > 100 µM | TGI [12]: > 100 µM | TGI [43]: > 100 µM | TGI [44]: > 100 µM | TGI [45]: > 100 µM | TGI [46]: > 100 µM | TGI [13]: > 100 µM | TGI [47]: > 100 µM | TGI [48]: > 100 µM | TGI [49]: > 100 µM | TGI [50]: > 100 µM | TGI [51]: > 100 µM | TGI [14]: > 100 µM | TGI [15]: > 100 µM | TGI [16]: > 100 µM | TGI [17]: > 100 µM | TGI [52]: > 100 µM | TGI [18]: > 100 µM | TGI [19]: > 100 µM | TGI [20]: > 100 µM | TGI [21]: > 100 µM | TGI [22]: > 100 µM | TGI [53]: > 100 µM | TGI [23]: > 100 µM | TGI [24]: > 100 µM | TGI [25]: > 100 µM | TGI [26]: > 100 µM | TGI [27]: > 100 µM | TGI [28]: > 100 µM | TGI [29]: > 100 µM | TGI [54]: > 100 µM | TGI [30]: > 100 µM | TGI [31]: > 100 µM | TGI [32]: > 100 µM | TGI [33]: > 100 µM | TGI [34]: > 100 µM | TGI [35]: > 100 µM | TGI [55]: > 100 µM
